{
  "source": "PubChem BioAssay AID2060505",
  "about": "(Molecular Pharmacology Branch, DTP, NCI, 2025)",
  "system": "633275-114-R-J1-PDC complex spheroids, viability",
  "experiment": "Anticancer human tumor 633275-114-R-J1-PDC patient-derived endometrial adenocarcinoma cell line growth inhibition [GQUAD]",
  "details": "for pIC50: curve of first compound; for viability, T/C: stronger effect = lower value",
  "outline": "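Multi-cell-type spheroids of tumor cells with HUVEC and mesenchymal stem cells, treated with drug combinations. Concentrations descend in half-log steps from near clinical Cmax, or from 10 microM where Cmax is unknown; viability read-out.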",
  "key": {"[1]": {"details": "second compound 0.0316 µM, first compound 0.0316 µM"}, "[2]": {"details": "second compound 0.0316 µM, first compound 0.1 µM"}, "[3]": {"details": "second compound 0.0316 µM, first compound 0.316 µM"}, "[4]": {"details": "second compound 0.0316 µM, first compound 1 µM"}, "[5]": {"details": "second compound 0.0316 µM, first compound 3.16 µM"}, "[6]": {"details": "second compound 0.0316 µM, first compound 10 µM"}, "[7]": {"details": "second compound 0.1 µM, first compound 0.0316 µM"}, "[8]": {"details": "second compound 0.1 µM, first compound 0.1 µM"}, "[9]": {"details": "second compound 0.1 µM, first compound 0.316 µM"}, "[10]": {"details": "second compound 0.1 µM, first compound 1 µM"}, "[11]": {"details": "second compound 0.1 µM, first compound 3.16 µM"}, "[12]": {"details": "second compound 0.1 µM, first compound 10 µM"}, "[13]": {"details": "second compound 0.316 µM, first compound 0.0316 µM"}, "[14]": {"details": "second compound 0.316 µM, first compound 0.1 µM"}, "[15]": {"details": "second compound 0.316 µM, first compound 0.316 µM"}, "[16]": {"details": "second compound 0.316 µM, first compound 1 µM"}, "[17]": {"details": "second compound 0.316 µM, first compound 3.16 µM"}, "[18]": {"details": "second compound 0.316 µM, first compound 10 µM"}, "[19]": {"details": "second compound 1 µM, first compound 0.0316 µM"}, "[20]": {"details": "second compound 1 µM, first compound 0.1 µM"}, "[21]": {"details": "second compound 1 µM, first compound 0.316 µM"}, "[22]": {"details": "second compound 1 µM, first compound 1 µM"}, "[23]": {"details": "second compound 1 µM, first compound 3.16 µM"}, "[24]": {"details": "second compound 1 µM, first compound 10 µM"}, "[25]": {"details": "second compound 3.16 µM, first compound 0.0316 µM"}, "[26]": {"details": "second compound 3.16 µM, first compound 0.1 µM"}, "[27]": {"details": "second compound 3.16 µM, first compound 0.316 µM"}, "[28]": {"details": "second compound 3.16 µM, first compound 1 µM"}, "[29]": {"details": "second compound 3.16 µM, first compound 3.16 µM"}, "[30]": {"details": "second compound 3.16 µM, first compound 10 µM"}, "[31]": {"details": "second compound 10 µM, first compound 0.0316 µM"}, "[32]": {"details": "second compound 10 µM, first compound 0.1 µM"}, "[33]": {"details": "second compound 10 µM, first compound 0.316 µM"}, "[34]": {"details": "second compound 10 µM, first compound 1 µM"}, "[35]": {"details": "second compound 10 µM, first compound 3.16 µM"}, "[36]": {"details": "second compound 10 µM, first compound 10 µM"}},
  "note": "pIC50: −log10 of the molar value.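 Note: spheroids exposed to the agents for seven days.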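 Throughout, for viability, T/C: percent of DMSO vehicle control viability which is 100%.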",
  "data": [
    {"smiles": "C=CC(=O)N1CCN(c2nc(=O)n(-c3c(C)ccnc3C(C)C)c3nc(-c4c(O)cccc4F)c(F)cc23)C(C)C1", "note": "(centres undefined) + Cc1[nH]c2ccc(F)cc2c1-c1nc2c3cccnc3c3ncccc3c2[nH]1", "values": [
      {"measurement": "pIC50", "setting": "second compound 0.0316 µM", "result": "< 5.00"},
      {"measurement": "pIC50", "setting": "second compound 0.1 µM", "result": "< 5.00"},
      {"measurement": "pIC50", "setting": "second compound 0.316 µM", "result": "< 5.00"},
      {"measurement": "pIC50", "setting": "second compound 1 µM", "result": "< 5.00"},
      {"measurement": "pIC50", "setting": "second compound 3.16 µM", "result": "< 5.00"},
      {"measurement": "pIC50", "setting": "second compound 10 µM", "result": "< 5.00"},
      {"measurement": "viability, T/C", "setting": "[1]", "result": 95.3, "unit": "%"},
      {"measurement": "viability, T/C", "setting": "[2]", "result": 100, "unit": "%"},
      {"measurement": "viability, T/C", "setting": "[3]", "result": 93.9, "unit": "%"},
      {"measurement": "viability, T/C", "setting": "[4]", "result": 104, "unit": "%"},
      {"measurement": "viability, T/C", "setting": "[5]", "result": 104, "unit": "%"},
      {"measurement": "viability, T/C", "setting": "[6]", "result": 77.9, "unit": "%"},
      {"measurement": "viability, T/C", "setting": "[7]", "result": 106, "unit": "%"},
      {"measurement": "viability, T/C", "setting": "[8]", "result": 105, "unit": "%"},
      {"measurement": "viability, T/C", "setting": "[9]", "result": 102, "unit": "%"},
      {"measurement": "viability, T/C", "setting": "[10]", "result": 100, "unit": "%"},
      {"measurement": "viability, T/C", "setting": "[11]", "result": 105, "unit": "%"},
      {"measurement": "viability, T/C", "setting": "[12]", "result": 88.9, "unit": "%"},
      {"measurement": "viability, T/C", "setting": "[13]", "result": 97.3, "unit": "%"},
      {"measurement": "viability, T/C", "setting": "[14]", "result": 98.1, "unit": "%"},
      {"measurement": "viability, T/C", "setting": "[15]", "result": 103, "unit": "%"},
      {"measurement": "viability, T/C", "setting": "[16]", "result": 97.6, "unit": "%"},
      {"measurement": "viability, T/C", "setting": "[17]", "result": 105, "unit": "%"},
      {"measurement": "viability, T/C", "setting": "[18]", "result": 83.3, "unit": "%"},
      {"measurement": "viability, T/C", "setting": "[19]", "result": 91.5, "unit": "%"},
      {"measurement": "viability, T/C", "setting": "[20]", "result": 92.4, "unit": "%"},
      {"measurement": "viability, T/C", "setting": "[21]", "result": 94.7, "unit": "%"},
      {"measurement": "viability, T/C", "setting": "[22]", "result": 98.1, "unit": "%"},
      {"measurement": "viability, T/C", "setting": "[23]", "result": 90.1, "unit": "%"},
      {"measurement": "viability, T/C", "setting": "[24]", "result": 77.9, "unit": "%"},
      {"measurement": "viability, T/C", "setting": "[25]", "result": 72.5, "unit": "%"},
      {"measurement": "viability, T/C", "setting": "[26]", "result": 74.9, "unit": "%"},
      {"measurement": "viability, T/C", "setting": "[27]", "result": 75.8, "unit": "%"},
      {"measurement": "viability, T/C", "setting": "[28]", "result": 76.3, "unit": "%"},
      {"measurement": "viability, T/C", "setting": "[29]", "result": 74.2, "unit": "%"},
      {"measurement": "viability, T/C", "setting": "[30]", "result": 62.6, "unit": "%"},
      {"measurement": "viability, T/C", "setting": "[31]", "result": 67, "unit": "%"},
      {"measurement": "viability, T/C", "setting": "[32]", "result": 71.8, "unit": "%"},
      {"measurement": "viability, T/C", "setting": "[33]", "result": 68.2, "unit": "%"},
      {"measurement": "viability, T/C", "setting": "[34]", "result": 78.7, "unit": "%"},
      {"measurement": "viability, T/C", "setting": "[35]", "result": 71.6, "unit": "%"},
      {"measurement": "viability, T/C", "setting": "[36]", "result": 59, "unit": "%"}
    ]},
    {"smiles": "COc1cc(C2c3cc4c(cc3C(OC3OC5COC(C)OC5C(O)C3O)C3COC(=O)C23)OCO4)cc(OC)c1O", "note": "(centres undefined) + Cc1cnc(CNC(=O)c2c(=O)c3ccc(N4CCCN(C)CC4)nc3n3c2sc2ccccc23)cn1", "values": [
      {"measurement": "pIC50", "setting": "second compound 0.0316 µM", "result": 6.73},
      {"measurement": "pIC50", "setting": "second compound 0.1 µM", "result": 7.06},
      {"measurement": "pIC50", "setting": "second compound 0.316 µM", "result": "> 7.50"},
      {"measurement": "pIC50", "setting": "second compound 1 µM", "result": "> 7.50"},
      {"measurement": "pIC50", "setting": "second compound 3.16 µM", "result": "> 7.50"},
      {"measurement": "pIC50", "setting": "second compound 10 µM", "result": "> 7.50"},
      {"measurement": "viability, T/C", "setting": "[1]", "result": 53.3, "unit": "%"},
      {"measurement": "viability, T/C", "setting": "[2]", "result": 55.2, "unit": "%"},
      {"measurement": "viability, T/C", "setting": "[3]", "result": 47.4, "unit": "%"},
      {"measurement": "viability, T/C", "setting": "[4]", "result": 41.3, "unit": "%"},
      {"measurement": "viability, T/C", "setting": "[5]", "result": 36.6, "unit": "%"},
      {"measurement": "viability, T/C", "setting": "[6]", "result": 27.8, "unit": "%"},
      {"measurement": "viability, T/C", "setting": "[7]", "result": 54.4, "unit": "%"},
      {"measurement": "viability, T/C", "setting": "[8]", "result": 45.2, "unit": "%"},
      {"measurement": "viability, T/C", "setting": "[9]", "result": 50.1, "unit": "%"},
      {"measurement": "viability, T/C", "setting": "[10]", "result": 40, "unit": "%"},
      {"measurement": "viability, T/C", "setting": "[11]", "result": 31.8, "unit": "%"},
      {"measurement": "viability, T/C", "setting": "[12]", "result": 29.4, "unit": "%"},
      {"measurement": "viability, T/C", "setting": "[13]", "result": 43.4, "unit": "%"},
      {"measurement": "viability, T/C", "setting": "[14]", "result": 45.8, "unit": "%"},
      {"measurement": "viability, T/C", "setting": "[15]", "result": 43.6, "unit": "%"},
      {"measurement": "viability, T/C", "setting": "[16]", "result": 41.4, "unit": "%"},
      {"measurement": "viability, T/C", "setting": "[17]", "result": 31.9, "unit": "%"},
      {"measurement": "viability, T/C", "setting": "[18]", "result": 28.1, "unit": "%"},
      {"measurement": "viability, T/C", "setting": "[19]", "result": 40.9, "unit": "%"},
      {"measurement": "viability, T/C", "setting": "[20]", "result": 41, "unit": "%"},
      {"measurement": "viability, T/C", "setting": "[21]", "result": 43.5, "unit": "%"},
      {"measurement": "viability, T/C", "setting": "[22]", "result": 41, "unit": "%"},
      {"measurement": "viability, T/C", "setting": "[23]", "result": 34.1, "unit": "%"},
      {"measurement": "viability, T/C", "setting": "[24]", "result": 28.4, "unit": "%"},
      {"measurement": "viability, T/C", "setting": "[25]", "result": 31.7, "unit": "%"},
      {"measurement": "viability, T/C", "setting": "[26]", "result": 32.9, "unit": "%"},
      {"measurement": "viability, T/C", "setting": "[27]", "result": 35.9, "unit": "%"},
      {"measurement": "viability, T/C", "setting": "[28]", "result": 32.7, "unit": "%"},
      {"measurement": "viability, T/C", "setting": "[29]", "result": 34.2, "unit": "%"},
      {"measurement": "viability, T/C", "setting": "[30]", "result": 25.5, "unit": "%"},
      {"measurement": "viability, T/C", "setting": "[31]", "result": 28.2, "unit": "%"},
      {"measurement": "viability, T/C", "setting": "[32]", "result": 31.4, "unit": "%"},
      {"measurement": "viability, T/C", "setting": "[33]", "result": 28.7, "unit": "%"},
      {"measurement": "viability, T/C", "setting": "[34]", "result": 32.9, "unit": "%"},
      {"measurement": "viability, T/C", "setting": "[35]", "result": 27.2, "unit": "%"},
      {"measurement": "viability, T/C", "setting": "[36]", "result": 20.9, "unit": "%"}
    ]}
  ]
}
